{"source": "patent US8163939B2", "about": "“Ascorbic acid derivative or salt thereof, production method thereof, and cosmetic” (Seikwa Kasei Company, Limited, priority 2007, dated 2012)", "key": {"[1]": {"tested_on": "B16 melanoma 4A5 cell", "experiment": "Whitening test: theophylline-induced melanine production in B16 melanoma 4A5 cells;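 as to all read-outs here: grades: ± under 20% + 20-40% ++ 40-70% +++ 70-100% suppression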", "format": "cell-based, mouse", "conditions": "sample at a concentration of 100 μM or less; theophylline-induced melanine production; 3 days culture; N=4", "method": "As a test for a whitening effect, evaluation of the action of B16 melanoma 4A5 cell on theophylline-induced melanine production was carried out on an ascorbic acid derivative of the present invention, according to the following procedure. The same evaluation was carried out also on ascorbic acid, known compounds: ascorbic acid salts, and ascorbic acid derivatives, as comparison. The results are shown in Tables 38 to 40. • (1) B16 mouse melanoma 4A5 strain was sowed onto a 48-well plate at a cell density of 2.0×10^4 cells/well. • (2) Culturing was performed for 24 hours with Dulbecco's Modified Eagle's medium (manufactured by SIGMA. Hereinafter, abbreviated as D-MEM) containing 10% fetal bovine serum (manufactured by Roshe Diagnostics). Then, it was changed to 0.2 mM theophylline and a 10% fetal bovine serum-containing D-MEM which contains a sample of given concentration. • (3) After culturing for 3 days in the co-existence of a sample, the medium was removed using an aspirator. Then, after distilled water was added, cells were broken by an ultrasonic wave. • (4) Thereafter, the amount of protein was determined using BCA protein assay kit (manufactured by PIERCE), and the produced amount of melanine was measured by an alkali solubilizing method. To the cell-destructed solution was added sodium hydroxide so as to give a final concentration of 2N and the mixture was dissolved by heating (60° C., 15 minutes), then, the absorbance at 450 nm was measured using a micro plate reader. The melanine amount was calculated from a calibration curve made using synthetic melanine (SIGMA) as a standard. The melanine amount per unit protein was calculated by dividing the melanine amount by the protein amount. • (5) The melanine production suppressing rate was calculated according to the following formula. Melanine production suppressing rate (%)=[1−(A−B)/(C−B)]×100 [wherein, A represents the melanine amount per unit protein (g/g) in adding a sample, B represents the melanine amount per unit protein (g/g) in the normal group, and C represents the melanine amount per unit protein (g/g) in the control group.]\nIn the following Tables, the melanine production suppressing rate in measuring a sample at a concentration of 100 μM or less is expressed as described below. The measurement was carried out at N=4."}, "[2]": {"tested_on": "Normal human dermal fibroblasts", "experiment": "Collagen production of human fibroblast (Sircol collagen assay, 100 μM, 48 hours)", "format": "cell-based", "conditions": "cultured 48 hours; for Collagen production promoting effect (collagen production amount, % of control group): N=4", "method": "(§1) Normal human dermal fibroblasts were regulated with a 10% (v/v) fetal bovine serum (manufactured by Roshe Diagnostics)-containing D-MEM so as to give a cell density of 2.5×10^4 cells/well, then, pre-incubation for 24 hours was performed on a 96-well plate. After the medium was removed, a sample regulated with a 5% (v/v) fetal bovine serum-containing D-MEM to a concentration of 100 μM was added to each well, then, cultured for 48 hours under 37° C. and 5% CO2. After completion of culturing, the amount of free collagen was measured using Sircol collagen assay kit (manufactured by Biocolor). The measurement was carried out at N=4.\nThe collagen production amount in measuring a sample at a concentration of 100 μM was compared with the control group, and the results thereof (% value when the control group is 100%) are shown in Tables 44 and 45 based on the following standard."}, "[3]": {"tested_on": "Normal human dermal fibroblasts", "experiment": "Collagen production of human fibroblast 2 (100 μM or 500 μM; 2, 4 and 7 days)", "format": "cell-based", "conditions": "for Collagen production amount in comparison with the control group (% value when the control group is 100%): 100 μM or 500 μM (not stated which), average ± standard error, N=4", "method": "as §1\nFree collagen was measured under the same conditions as in Test Example 5 excepting that the concentration of each sample was 100 μM or 500 μM and culturing was carried out for 2 days, 4 days and 7 days. The measurement was carried out at N=4, and the average and standard error, in four test examples, of values of the collagen production amount in comparison with the control group (% value when the control group is 100%) are shown in Tables 46 and 47."}, "[4]": {"conditions": "Table 47, culturing period 2 days"}, "[5]": {"conditions": "Table 47, culturing period 4 days"}, "[6]": {"conditions": "Table 47, culturing period 7 days"}}}
{"smiles": "CCCCCCCCC(O)COC1=C(O)C(=O)O[C@@H]1[C@@H](O)CO", "note": "(some centres unmarked) [Example 46]", "values": [{"measurement": "Whitening effect (melanine production suppressing rate)", "setting": "[1]", "value": "++ (40 to 70%:++)"}, {"measurement": "Collagen production promoting effect (collagen production amount, % of control group)", "setting": "[2]", "value": "+ (100 to 200%:+)"}, {"measurement": "Collagen production amount in comparison with the control group (% value when the control group is 100%)", "setting": "[3]; [4]", "value": "152 ± 6", "unit": "%"}, {"measurement": "Collagen production amount in comparison with the control group (% value when the control group is 100%)", "setting": "[3]; [5]", "value": "123 ± 11", "unit": "%"}, {"measurement": "Collagen production amount in comparison with the control group (% value when the control group is 100%)", "setting": "[3]; [6]", "value": "254 ± 10", "unit": "%"}]}
{"smiles": "O=C1O[C@H]([C@@H](O)CO)C([O-])=C1OP(=O)([O-])[O-].O=C1O[C@H]([C@@H](O)CO)C([O-])=C1OP(=O)([O-])[O-].[Mg+2].[Mg+2].[Mg+2]", "note": "[magnesium ascorbyl phosphate, reference compound]", "values": [{"measurement": "Whitening effect (melanine production suppressing rate)", "setting": "[1]", "value": "± (<20%:±)"}, {"measurement": "Collagen production promoting effect (collagen production amount, % of control group)", "setting": "[2]", "value": "+ (100 to 200%:+)"}, {"measurement": "collagen production promoting effect over time (in words)", "setting": "[3]; 100 μM or 500 μM, culturing 2, 4 and 7 days", "value": "lowers over time"}, {"measurement": "Collagen production amount in comparison with the control group (% value when the control group is 100%)", "setting": "[3]; Table 46, culturing period 2 days", "value": "276 ± 9", "unit": "%"}, {"measurement": "Collagen production amount in comparison with the control group (% value when the control group is 100%)", "setting": "[3]; Table 46, culturing period 4 days", "value": "207 ± 24", "unit": "%"}, {"measurement": "Collagen production amount in comparison with the control group (% value when the control group is 100%)", "setting": "[3]; Table 46, culturing period 7 days", "value": "191 ± 2", "unit": "%"}]}
{"smiles": "CCCCCCCCC(O)COC1=C(OCC(O)CO)[C@@H]([C@@H](O)CO)OC1=O", "note": "(some centres unmarked) [Example 29, 3-O-glyceryl-2-O-(2-hydroxydecyl) ascorbic acid]", "values": [{"measurement": "Whitening effect (melanine production suppressing rate)", "setting": "[1]", "value": "+ (20 to 40%:+)"}, {"measurement": "activity at 100 µM", "setting": "[2]; Homo sapiens, Fibroblast, N=4, read-out: Collagen production promoting effect (collagen production amount, % of control group)", "value": "100 to 200", "unit": "%"}, {"measurement": "Collagen production amount in comparison with the control group (% value when the control group is 100%)", "setting": "[3]; [4]", "value": "97 ± 19", "unit": "%"}, {"measurement": "Collagen production amount in comparison with the control group (% value when the control group is 100%)", "setting": "[3]; [5]", "value": "116 ± 7", "unit": "%"}, {"measurement": "Collagen production amount in comparison with the control group (% value when the control group is 100%)", "setting": "[3]; [6]", "value": "138 ± 3", "unit": "%"}]}
{"smiles": "CCCCCCCCOCC(O)COC1=C(OCC(O)CO)C(C(O)CO)OC1=O", "note": "(centres unmarked) [Example 84]", "values": [{"measurement": "Whitening effect (melanine production suppressing rate)", "setting": "[1]", "value": "+ (20 to 40%:+)"}, {"measurement": "Collagen production promoting effect (collagen production amount, % of control group)", "setting": "[2]", "value": "+ (100 to 200%:+)"}, {"measurement": "Collagen production amount in comparison with the control group (% value when the control group is 100%)", "setting": "[3]; [4]", "value": "135 ± 11", "unit": "%"}, {"measurement": "Collagen production amount in comparison with the control group (% value when the control group is 100%)", "setting": "[3]; [5]", "value": "154 ± 8", "unit": "%"}, {"measurement": "Collagen production amount in comparison with the control group (% value when the control group is 100%)", "setting": "[3]; [6]", "value": "201 ± 16", "unit": "%"}]}
{"smiles": "CCCCOCC(O)COC1=C(OCC)C(C(O)CO)OC1=O", "note": "(centres unmarked) [Example 97]", "values": [{"measurement": "Whitening effect (melanine production suppressing rate)", "setting": "[1]", "value": "+ (20 to 40%:+)"}, {"measurement": "Collagen production promoting effect (collagen production amount, % of control group)", "setting": "[2]", "value": "+ (100 to 200%:+)"}, {"measurement": "Collagen production amount in comparison with the control group (% value when the control group is 100%)", "setting": "[3]; [4]", "value": "93 ± 4", "unit": "%"}, {"measurement": "Collagen production amount in comparison with the control group (% value when the control group is 100%)", "setting": "[3]; [5]", "value": "111 ± 4", "unit": "%"}, {"measurement": "Collagen production amount in comparison with the control group (% value when the control group is 100%)", "setting": "[3]; [6]", "value": "139 ± 15", "unit": "%"}]}
